Source: the Kinase Knowledgebase extract (Sharma et al. 2016)

Molecular target: MAPK14 (UniProt Q16539)
Test: p38 Inhibition

Chain of MAPK14 (Q16539 whole entry, looked up): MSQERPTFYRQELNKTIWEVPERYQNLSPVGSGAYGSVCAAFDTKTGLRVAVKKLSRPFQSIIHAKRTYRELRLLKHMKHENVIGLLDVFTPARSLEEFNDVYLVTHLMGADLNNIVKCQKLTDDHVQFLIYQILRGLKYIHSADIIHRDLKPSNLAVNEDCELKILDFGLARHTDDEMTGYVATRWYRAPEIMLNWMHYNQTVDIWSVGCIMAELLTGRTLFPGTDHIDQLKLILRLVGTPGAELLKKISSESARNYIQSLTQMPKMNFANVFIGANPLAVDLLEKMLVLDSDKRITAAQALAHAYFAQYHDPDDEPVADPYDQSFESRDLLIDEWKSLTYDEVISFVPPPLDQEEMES

IC50 [µM]	Structure (SMILES)
0.035	O=c1c(-c2ccncc2)c(-c2ccc(F)cc2)[nH]n1-c1ccc(Cl)cc1
> 30	O=C(CCCNc1ncc(C(F)(F)F)cc1Cl)NNS(=O)(=O)c1ccc(CNC(=O)c2cccc(O)c2)s1
> 30	O=C(CNS(=O)(=O)c1ccc(CNC(=O)c2ccc(Cl)cc2)s1)Nc1cccc(S(=O)(=O)C(F)(F)F)c1
> 17	Cc1cc(-c2c(-c3ccc(F)cc3)ncn2CCCN2CCOCC2)cc(C)n1
> 17	Cc1cc(-c2c(-c3ccc(F)cc3)ncn2CCCN2CCOCC2)nc(N)n1

Molecular target: CDK2 (UniProt P24941)
Test: Enzyme Assay

Structure (SMILES)	IC50 [nM]	Ki [nM]
N[C@H](COc1cncc(-c2cc3cn[nH]c3cn2)c1)Cc1c[nH]c2ccccc12	6	
N[C@H](COc1cncc(-c2ccc3[nH]ncc3c2)c1)Cc1c[nH]c2ccccc12	63	42

Molecular target: MAPK14 (murine)
Test: Inhibition of MAPK14 Kinase Activity

IC50 [nM]	Structure (SMILES)
100	O=C1NCc2cc(NS(=O)(=O)c3cc(Cl)ccc3Cl)ccc2N1c1c(Cl)cccc1Cl
14	COc1ccc(CCN2CCN(C)CC2)cc1-c1n[nH]c2nc(Nc3ccc(F)cc3F)ncc12
22	COc1ccc(C(=O)N2CCCC2)cc1-c1c(=O)ccn2nc(Oc3ccc(F)cc3F)ccc12
320	O=c1ccn2cc(Sc3ccc(F)cc3F)ccc2c1-c1c(F)cccc1F
710	O=c1ccn2nc(NCc3ccc(F)cc3F)ccc2c1-c1c(F)cccc1F
5800	Fc1ccc(Nc2ccc3c(-c4ccccc4Cl)ncnc3n2)c(F)c1
14	Cc1cc(OCCCN2CCOCC2)cc(C)c1N1C(=O)NCc2cc(NS(=O)(=O)c3ccc(F)c(Cl)c3)ccc21
93	O=c1ccn2cc(Cc3ccc(F)cc3F)ccc2c1-c1c(F)cccc1F
11	COc1ccc(CCN(C)C)cc1-c1n[nH]c2nc(Nc3ccc(F)cc3F)ncc12
59	CCc1ccc(C(=O)N2CCCC2)cc1-c1c(=O)ccn2nc(Oc3ccc(F)cc3F)ccc12

Molecular target: MAPK14 (UniProt Q16539)
Test: Inhibition of MAPK Kinase Activity

IC50 [µM]	Structure (SMILES)
> 10	OCCCCNc1cncc(-c2cncc(Nc3cccc(Cl)c3)n2)c1
> 10	Clc1cccc(Nc2cncc(-c3cncc(NCCCc4cccnc4)c3)n2)c1
> 10	Clc1cccc(Nc2cncc(-c3cncc(NCCCn4cccn4)c3)n2)c1
> 10	CN(C)CCNc1cncc(-c2cncc(Nc3cccc(Cl)c3)n2)c1
> 10	OCCCNc1cncc(-c2cncc(Nc3cccc(Cl)c3)n2)c1
> 10	Clc1cccc(Nc2cncc(-c3cncc(NCCCn4cncn4)c3)n2)c1

Structure (SMILES)	IC50 [µM]
N[C@H](COc1cncc(-c2cc3cn[nH]c3cn2)c1)Cc1c[nH]c2ccccc12	0.75
N[C@H](COc1cncc(-c2ccc3[nH]ncc3c2)c1)Cc1c[nH]c2ccccc12	12.2

Molecular target: PIK3CB;PIK3CG;PIK3CD;PIK3CA (human) (UniProt P48736)
Test: Inhibition of PIK3 Kinase Activity

IC50 [nM]	Structure (SMILES)
1500	O=C(C1CCN(c2cc(N3CCOCC3)nc(-c3cccc(CO)c3)n2)CC1)N1CCOCC1
1000	O=C(C1CNCCO1)N1CCN(c2cc(N3CCOCC3)nc(-c3cccc(CO)c3)n2)CC1 (configuration not stated)
500	CS(=O)(=O)N1CC=C(c2cc(N3CCOCC3)nc(-c3cccc(CO)c3)n2)CC1
1000	O=C(NCc1ccncc1)C1CCN(c2cc(N3CCOCC3)nc(-c3cccc(CO)c3)n2)CC1
500	O=C(CCc1cccnc1)N1CCN(c2cc(N3CCOCC3)nc(-c3cccc(CO)c3)n2)CC1
1000	CC(C)C(=O)N1CC=C(c2cc(N3CCOCC3)nc(-c3cccc(CO)c3)n2)CC1
500	O=C(N1CC=C(c2cc(N3CCOCC3)nc(-c3cccc(CO)c3)n2)CC1)N1CCNCC1
1000	O=C(NC1CCNCC1)C1CCN(c2cc(N3CCOCC3)nc(-c3cccc(CO)c3)n2)CC1
1000	O=C(C1COCCN1)N1CC=C(c2cc(N3CCOCC3)nc(-c3cccc(CO)c3)n2)CC1 (configuration not stated)
500	Cn1ccnc1C(=O)N1CCN(c2cc(N3CCOCC3)nc(-c3cccc(CO)c3)n2)CC1
300	CC(=O)N1CCN(c2cc(N3CCOCC3)nc(-c3cccc(CO)c3)n2)CC1

Molecular target: ROCK2 (human) (UniProt O75116)
Test: Assessment of ROCK2 Kinase Activity

Chain of ROCK2 (human) (O75116 whole entry, looked up): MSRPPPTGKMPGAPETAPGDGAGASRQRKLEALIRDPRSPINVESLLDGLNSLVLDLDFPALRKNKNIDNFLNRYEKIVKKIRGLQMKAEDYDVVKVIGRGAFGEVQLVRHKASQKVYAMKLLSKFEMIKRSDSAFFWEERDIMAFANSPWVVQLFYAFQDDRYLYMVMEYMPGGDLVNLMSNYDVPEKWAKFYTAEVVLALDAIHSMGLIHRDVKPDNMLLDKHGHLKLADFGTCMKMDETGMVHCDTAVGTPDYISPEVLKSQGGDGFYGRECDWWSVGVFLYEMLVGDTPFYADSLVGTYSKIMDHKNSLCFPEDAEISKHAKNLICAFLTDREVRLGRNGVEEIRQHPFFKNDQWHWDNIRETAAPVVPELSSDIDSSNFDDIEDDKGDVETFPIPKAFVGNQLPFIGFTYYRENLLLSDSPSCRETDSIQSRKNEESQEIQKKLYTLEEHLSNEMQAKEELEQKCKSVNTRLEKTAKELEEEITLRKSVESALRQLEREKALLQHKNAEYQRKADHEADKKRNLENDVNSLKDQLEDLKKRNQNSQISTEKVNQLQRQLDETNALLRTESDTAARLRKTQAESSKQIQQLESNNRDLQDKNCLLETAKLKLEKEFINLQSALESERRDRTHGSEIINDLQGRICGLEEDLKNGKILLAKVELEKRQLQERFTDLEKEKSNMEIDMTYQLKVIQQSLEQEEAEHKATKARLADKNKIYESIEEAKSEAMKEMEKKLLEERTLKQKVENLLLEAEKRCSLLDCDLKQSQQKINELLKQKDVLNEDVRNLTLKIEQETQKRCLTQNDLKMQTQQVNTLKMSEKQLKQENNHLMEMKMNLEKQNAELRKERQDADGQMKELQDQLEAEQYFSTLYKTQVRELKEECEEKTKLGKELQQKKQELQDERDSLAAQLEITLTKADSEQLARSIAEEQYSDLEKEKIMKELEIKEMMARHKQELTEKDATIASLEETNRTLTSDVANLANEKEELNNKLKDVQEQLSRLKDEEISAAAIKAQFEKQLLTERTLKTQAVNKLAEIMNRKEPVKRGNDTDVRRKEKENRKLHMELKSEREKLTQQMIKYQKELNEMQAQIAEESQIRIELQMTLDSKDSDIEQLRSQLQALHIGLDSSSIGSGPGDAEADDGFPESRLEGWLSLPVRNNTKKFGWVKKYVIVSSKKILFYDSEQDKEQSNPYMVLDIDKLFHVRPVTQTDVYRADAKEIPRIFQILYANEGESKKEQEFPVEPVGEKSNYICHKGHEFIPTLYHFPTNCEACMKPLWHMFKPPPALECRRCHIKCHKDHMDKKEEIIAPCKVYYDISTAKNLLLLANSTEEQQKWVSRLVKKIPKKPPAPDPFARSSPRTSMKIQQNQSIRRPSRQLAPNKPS

IC50 [nM]	Structure (SMILES)
6700	CCC(C)=O.c1n[nH]cc1-c1cnc2ccc(N3CCCNCC3)nn12
500	CC1CN(c2ccnc(N)n2)c2ccc(Cl)cc21 (configuration not stated)
4	Nc1nc(Nc2ccc(Oc3ccnc4[nH]cc(Cl)c34)c(F)c2)cc(C(F)(F)F)n1
200	CC1CN(c2ccnc(N)n2)c2ccc(F)cc21 (configuration not stated)
400	CC1CN(c2ccnc(N)n2)c2ccc([N+](=O)[O-])cc21 (configuration not stated)
2	N#Cc1c[nH]c2nccc(Oc3ccc(Nc4cc(C(F)(F)F)nc(N)n4)cc3F)c12
70	COc1cccc(CNC(=O)c2cccc3c2ccn3-c2ccnc(N)n2)c1
71000	Clc1cnc2ccc(NCCCN3CCOCC3)nn12
60	C[C@@H](NC(=O)c1cccc2c1ccn2-c1ccnc(N)n1)c1ccccc1

Molecular target: PIK3CA (human) (UniProt P42336)
Test: Assessment of Growth Inhibition of U937 Cells

IC50 [µM]	Structure (SMILES)
> 30	NCCN1C(=O)SC(=CCCc2ccc(S(N)(=O)=O)cc2)C1=O
> 30	O=C(O)N1C(=O)SC(=CCCc2ccccc2)C1=O
> 30	O=C1SC(=CCCc2ccccc2)C(=O)N1CN1CCOCC1
> 30	NCCN1C(=O)SC(=CCCc2cccnc2)C1=O
> 30	NCCN1C(=O)c2ccc(Cc3ccccc3)cc2C1=O
> 30	CCCC=C1SC(=O)N(CCN)C1=O
> 30	NCCN1C(=O)SC(CCCc2ccccc2)C1=O (configuration not stated)
> 30	NCCN1C(=O)SC(=CCCc2ccc([N+](=O)[O-])cc2)C1=O
> 30	CS(=O)(=O)Nc1ccc(CCC=C2SC(=O)N(CCN)C2=O)cc1

Molecular target: EGFR (UniProt P00533)
Test: not given

Chain of EGFR (P00533 whole entry, looked up): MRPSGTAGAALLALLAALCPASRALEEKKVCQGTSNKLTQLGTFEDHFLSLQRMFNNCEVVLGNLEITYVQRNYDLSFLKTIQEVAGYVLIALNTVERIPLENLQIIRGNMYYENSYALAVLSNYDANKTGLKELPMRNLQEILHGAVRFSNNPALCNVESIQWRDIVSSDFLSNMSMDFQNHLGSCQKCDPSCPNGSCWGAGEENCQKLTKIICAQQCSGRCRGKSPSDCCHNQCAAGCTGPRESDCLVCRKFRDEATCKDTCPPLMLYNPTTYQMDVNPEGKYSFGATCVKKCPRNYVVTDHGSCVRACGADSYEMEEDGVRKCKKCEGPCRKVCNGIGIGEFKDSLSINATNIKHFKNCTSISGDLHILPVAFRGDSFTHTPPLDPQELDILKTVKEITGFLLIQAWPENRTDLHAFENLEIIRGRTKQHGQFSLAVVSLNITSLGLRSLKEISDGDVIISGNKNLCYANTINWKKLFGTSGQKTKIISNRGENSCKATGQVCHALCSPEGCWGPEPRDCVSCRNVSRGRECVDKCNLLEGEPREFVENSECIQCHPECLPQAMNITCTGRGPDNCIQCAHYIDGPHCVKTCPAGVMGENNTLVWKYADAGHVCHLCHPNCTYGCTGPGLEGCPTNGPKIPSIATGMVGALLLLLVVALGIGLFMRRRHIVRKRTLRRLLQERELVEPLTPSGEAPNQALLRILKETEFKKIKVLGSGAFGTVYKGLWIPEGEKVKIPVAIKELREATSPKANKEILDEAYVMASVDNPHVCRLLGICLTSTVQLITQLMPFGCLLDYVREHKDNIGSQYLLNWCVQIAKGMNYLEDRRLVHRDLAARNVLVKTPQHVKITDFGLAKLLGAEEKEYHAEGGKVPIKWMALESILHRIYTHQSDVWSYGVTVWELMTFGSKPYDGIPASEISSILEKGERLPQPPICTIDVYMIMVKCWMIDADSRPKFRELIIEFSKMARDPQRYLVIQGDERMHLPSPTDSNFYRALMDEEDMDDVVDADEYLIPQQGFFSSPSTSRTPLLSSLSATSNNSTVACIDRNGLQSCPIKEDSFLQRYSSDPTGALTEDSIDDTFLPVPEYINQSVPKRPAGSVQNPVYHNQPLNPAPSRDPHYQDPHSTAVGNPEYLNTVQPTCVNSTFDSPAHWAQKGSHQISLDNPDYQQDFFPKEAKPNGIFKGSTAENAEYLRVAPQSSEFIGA

inhibition	Structure (SMILES)
7.6	NCCc1cc(SC[C@H](NC(=O)CC[C@H](N)C(=O)O)C(=O)NCC(=O)O)c(O)c(O)c1SC[C@H](NC(=O)CC[C@H](N)C(=O)O)C(=O)NCC(=O)O
2.5	NCCC(=O)N[C@@H](Cc1cc(O)c(O)c(SC[C@H](N)C(=O)O)c1)C(=O)O
2.2	NCCC(=O)N[C@@H](Cc1cc(O)c(O)c(SC[C@H](NC(=O)CC[C@H](N)C(=O)O)C(=O)NCC(=O)O)c1)C(=O)O
8.2	NCCC(=O)N[C@H](Cc1cc(O)c(O)c(SC[C@H](NC(=O)CC[C@H](N)C(=O)O)C(=O)NCC(=O)O)c1)C(=O)O
1	NCCc1cc(O)c(O)c(SC[C@H](NC(=O)CC[C@H](N)C(=O)O)C(=O)NCC(=O)O)c1
2.9	N[C@@H](CSc1cc(C[C@H](N)C(=O)O)cc(O)c1O)C(=O)O
4.4	N[C@@H](CCC(=O)N[C@@H](CSc1cc(C[C@H](N)C(=O)O)cc(O)c1O)C(=O)NCC(=O)O)C(=O)O
5.2	C[C@@](Cc1cc(O)c(O)c(SC[C@H](NC(=O)CC[C@H](N)C(=O)O)C(=O)NCC(=O)O)c1)(NC(=O)CCN)C(=O)O
4.9	NCCC(=O)NCCc1cc(O)c(O)c(SC[C@H](NC(=O)CC[C@H](N)C(=O)O)C(=O)NCC(=O)O)c1

Molecular target: EGFR (UniProt P00533)
Test: not given
Remark: another data set of the same source

IC50 [µM]	Structure (SMILES)
250	CC1=CCC[C@H]2[C@](C)(CC3=C(O)C(=O)C=C(N[C@H](C(=O)O)C(C)C)C3=O)[C@@H](C)CC[C@]12C
200	CC1=CCC[C@H]2[C@](C)(CC3=C(N[C@H](C(=O)O)[C@@H](C)O)C(=O)C=C(N[C@H](C(=O)O)[C@@H](C)O)C3=O)[C@@H](C)CC[C@]12C
200	CC1=CCC[C@H]2[C@](C)(CC3=C(O)C(=O)C=C(N[C@@H](C(=O)O)C(C)C)C3=O)[C@@H](C)CC[C@]12C
170	CC1=CCC[C@H]2[C@](C)(CC3=C(O)C(=O)C=C(N[C@@H](CO)C(=O)O)C3=O)[C@@H](C)CC[C@]12C
> 400	CC1=CCC[C@H]2[C@](C)(CC3=C(O)C(=O)C=C(NCC(=O)O)C3=O)[C@@H](C)CC[C@]12C
> 400	CC1=CCC[C@H]2[C@](C)(CC3=C(O)C(=O)C=C(N[C@H](CO)C(=O)O)C3=O)[C@@H](C)CC[C@]12C
> 400	CC1=CCC[C@H]2[C@](C)(CC3=C(O)C(=O)C=C(N[C@H](C(=O)O)[C@@H](C)O)C3=O)[C@@H](C)CC[C@]12C
> 400	CC1=CCC[C@H]2[C@](C)(CC3=C(O)C(=O)C=C(N[C@@H](C(=O)O)[C@@H](C)O)C3=O)[C@@H](C)CC[C@]12C
> 400	CC1=CCC[C@H]2[C@](C)(CC3=C(N[C@@H](CO)C(=O)O)C(=O)C=C(N[C@@H](CO)C(=O)O)C3=O)[C@@H](C)CC[C@]12C

Molecular target: EGFR (human) (UniProt P00533)
Test: not given

Chain of EGFR (human) (P00533 whole entry, looked up): as above

IC50 [µM]	Structure (SMILES)
> 100	O=C(O)/C(=C1/C(=O)Nc2ccccc21)c1ccccc1
> 100	Cc1cc(C)c(/C(C(=O)Nc2ccc(F)c(Cl)c2)=C2\C(=O)Nc3ccccc32)[nH]1
> 100	Cc1cc(C)c(/C(C(=O)Nc2ccccc2Cl)=C2\C(=O)Nc3ccccc32)[nH]1
> 100	CCN(CC)CCNC(=O)/C(=C1/C(=O)Nc2ccccc21)c1[nH]c(C)cc1C
> 100	Cc1cc(C)c(/C(C(=O)Nc2cccc(F)c2)=C2\C(=O)Nc3ccccc32)[nH]1
> 100	Cc1cc(C)c(/C(C(=O)Nc2cccc(N(C)C)c2)=C2\C(=O)Nc3ccccc32)[nH]1
> 100	CCN(CC)Cc1cc(NC(=O)/C(=C2/C(=O)Nc3ccccc32)c2[nH]c(C)cc2C)ccc1O
> 100	Cc1cc(C)c(/C(C(=O)O)=C2\C(=O)Nc3ccccc32)[nH]1

Molecular target: EGFR (UniProt P00533)
Test: not given
Remark: another data set of the same source

IC50 [nM]	Structure (SMILES)
1 to 5000	COc1cccc(Nc2ncnc3cccc(CN4CCC(N)CC4)c23)c1
1 to 5000	C#Cc1cccc(Nc2ncnc3cccc(CN4CC[C@@H](N)[C@H](CO)C4)c23)c1

Molecular target: EGFR (human) (UniProt P00533)
Test: not given
Remark: another data set of the same source

IC50 [nM]	Structure (SMILES)
≤ 1000	COc1cc2ncnc(NS(=O)(=O)c3ccccc3C#N)c2cc1OC
≤ 1000	COc1cc2ncnc(NS(=O)(=O)c3ccccc3Br)c2cc1OC
≤ 1000	COc1cc2ncnc(NS(=O)(=O)c3ccccc3I)c2cc1OC
≤ 1000	COc1cc2ncnc(NS(=O)(=O)c3ccc(C)cc3)c2cc1OC
≤ 1000	COc1cc2ncnc(NS(=O)(=O)c3ccccc3Cl)c2cc1OC
≤ 1000	COc1cc2ncnc(NS(=O)(=O)c3ccc(Br)cc3)c2cc1OC
≤ 1000	COc1cc2ncnc(NS(=O)(=O)c3cccc(Cl)c3)c2cc1OC
≤ 1000	COc1ccc(S(=O)(=O)Nc2ncnc3cc(OC)c(OC)cc23)cc1
≤ 1000	COc1cc2ncnc(NS(=O)(=O)c3ccc(Cl)cc3)c2cc1OC
